Measured values: ChEMBL document CHEMBL3046610, “Synthesis and Biological Activities of Fluorinated Plant Growth Regulators, 4, 4, 4-Trifluoro-3-(3-indolyl)butyric Acids and 4, 4, 4-Trifluoro-3-(2-indolyl)butyric Acid Bearing a Methyl Group on the Indole Nucleus” (1997)
Calls of active or inactive are those of the source. The calls are words filed in the database; no cut-off is given here.

Key:
Oryza sativa [1] = assay: Growth promoting activity in Oryza sativa (rice) assessed as increase in shoot length at 1 x 10^-5 M relative to control; type: functional
Oryza sativa [2] = assay: Growth promoting activity in Oryza sativa (rice) assessed as increase in shoot length at 1 x 10^-6 M relative to control; type: functional
Brassica rapa [3] = assay: Growth promoting activity in Brassica rapa (Chinese cabbage) assessed as increase in root length at 1 x 10^-3 M relative to control; type: functional, organism-based
Oryza sativa [4] = assay: Growth promoting activity in Oryza sativa (rice) assessed as increase in shoot length at 1 x 10^-3 M relative to control; type: functional
Oryza sativa [5] = assay: Growth promoting activity in Oryza sativa (rice) assessed as increase in root length at 1 x 10^-3 M relative to control; type: functional, organism-based
Oryza sativa [6] = assay: Growth promoting activity in Oryza sativa (rice) assessed as increase in root length at 1 x 10^-5 M relative to control; type: functional
Oryza sativa [7] = assay: Growth promoting activity in Oryza sativa (rice) assessed as increase in shoot length at 1 x 10^-4 M relative to control; type: functional
Oryza sativa [8] = assay: Growth promoting activity in Oryza sativa (rice) assessed as increase in root length at 1 x 10^-4 M relative to control; type: functional
Lactuca sativa [9] = assay: Growth promoting activity in Lactuca sativa (lettuce) assessed as increase in root length at 1 x 10^-5 M relative to control; type: functional, organism-based
Oryza sativa [10] = assay: Growth promoting activity in Oryza sativa (rice) assessed as increase in root length at 1 x 10^-6 M relative to control; type: functional
Lactuca sativa [11] = assay: Growth promoting activity in Lactuca sativa (lettuce) assessed as increase in root length at 1 x 10^-4 M relative to control; type: functional, organism-based
Brassica rapa [12] = assay: Growth promoting activity in Brassica rapa (Chinese cabbage) assessed as increase in root length at 1 x 10^-4 M relative to control; type: functional
Brassica rapa [13] = assay: Growth promoting activity in Brassica rapa (Chinese cabbage) assessed as increase in root length; type: functional, organism-based

SMILES	Activity (Oryza sativa [1]) [%]	Activity (Oryza sativa [2]) [%]	Activity (Brassica rapa [3])	Activity (Oryza sativa [4]) [%]	Activity (Oryza sativa [5])	Activity (Oryza sativa [6]) [%]	Activity (Oryza sativa [7]) [%]	Activity (Oryza sativa [8]) [%]	Activity (Lactuca sativa [9])	Activity (Oryza sativa [10]) [%]	Activity (Lactuca sativa [11])	fold change (FC) (Brassica rapa [12])	Activity (Brassica rapa [13])
Cc1[nH]c2ccccc2c1C(CC(=O)O)C(F)(F)F (racemic)	103.2	98.8	inactive	36.6	inactive	242	84	168	inactive	111.8	inactive		
Cc1cccc2[nH]cc(C(CC(=O)O)C(F)(F)F)c12 (racemic)	102.7	103.6	inactive	33.7	inactive	357.5	86.4	274.6	Active	172.5	Active	2.5	Active
Cc1ccc2[nH]cc(C(CC(=O)O)C(F)(F)F)c2c1 (racemic)	105.5	100.5	inactive	31.9	inactive	382.4	90	331.1	Active	168.5	Active		
Cc1ccc2c(C(CC(=O)O)C(F)(F)F)c[nH]c2c1 (racemic)	106.2	103.3	inactive	31.5	inactive	377.5	95.9	311.4	Active	172	Active	2.5	Active
Cc1cccc2c(C(CC(=O)O)C(F)(F)F)c[nH]c12 (racemic)	112.8	96	inactive	36.9	inactive	277.1	83.3	224.4	Active	126	Active	2.5	Active
Cc1c(C(CC(=O)O)C(F)(F)F)[nH]c2ccccc12 (racemic)	106.2	98.4	inactive	38.2	inactive	266	99	433.3	Active	134.6	inactive	2.5	Active
Cn1cc(C(CC(=O)O)C(F)(F)F)c2ccccc21 (racemic)	105.3	94.6	inactive	46	inactive	211.1	86.2	153.4	inactive	136.2	Active		inactive
O=C(O)CC(c1c[nH]c2ccccc12)C(F)(F)F (racemic)	99	99.2		35.6	inactive	290.1	76.7	199.5		128.9			
